From patent US20230277125A1, “BREATH-BASED THERAPEUTIC DRUG MONITORING METHOD” (UNIVERSITÄTS-KINDERSPITAL BEIDER BASEL, priority 2020, published 2023)

Tests used:
[1] = human subject; cited from earlier work
[2] = human, in vivo
Description: It will be further noted that according to the methods of the present invention it is possible to measure the level of metabolites that belong to different metabolic pathways. Therefore, by measuring the level of said metabolites and comparing them with each other, it is also possible to compare the activities of said different metabolic pathways. […] FIG. 3 presents the time dependence of the relative activity of two oxidation pathways of valproate, β-oxidation that leads to 3-heptanone, and ω1-oxidation that results in 2-propyl-4-pentanolactone. The activities of both oxidation pathways are presented herein as a ratio between the nAUC parameters for m/z peaks due to compounds belonging to each of the pathways, and presented in a logarithmic scale. Both increase of in 2-propyl-4-pentanolactone to 3-heptanone ratio, as well as decrease thereof can be observed over time, and observed ratios span more than 100-fold range. Herein, values of nAUC parameters for the m/z peaks due to both 3-heptanone and 2-propyl-4-pentanolactone (accordingly, peaks at m/z of 115.11176 and 143.10659 in FIG. 14) are predictors for the previously trained mathematical model of the present invention.
FIG. 3 presents the time dependence of the relative activity of two oxidation pathways of valproate, β-oxidation that leads to 3-heptanone, and […] that results in 2-propyl-4-pentanolactone. […]

[3] = Blood-based therapeutic drug monitoring of serum valproate (immunoassay total, GC-MS free); assay type: in vivo, human
Description: FIG. 2 presents an analysis pipeline that includes constructing a response vector matrix, splitting the dataset into training and test set, applying feature reduction analysis to […] in order to identify predictors, training mathematical model based on selected predictors, applying selected predictors and mathematical model to the test set to determine the concentration of valproate in a subject, which matches well the serum concentration determined using the blood analysis, as determined in an immunoassay (total valproate concentration) and by GC-MS (free valproate concentration).
The range of pharmacotherapies is described in AED rows. The patients were receiving either a single drug or combinations of up to three drugs. The bottom three rows identify the clinical outcome as described by side effects (mild or severe), drug response (responder or non-responder), and EEG (normal or abnormal). The grey bars on the top show the concentrations (mg/L) of free and total serum VPA (level 0 was assigned to all the measurements of subjects' not taking VPA, missing bars in free VPA represents the unavailability of data). Dark (light) grey bars indicate that the measurements were outside (inside) the therapeutic range (i.e. 50-100 mg/L for total and 5-10 mg/L for free VPA). Thus, for example, patient 20 suffers from DEE. During the first visit (i.e. 20-1), the patient was receiving a combination of LTG, LEV, and VPA. Total serum VPA concentration was 104 mg/L (i.e. beyond the therapeutic range) and free serum VPA could not be measured. At this point in time, the patient had only mild side effects, but was not responding to the medication, and EEG was abnormal. On the second visit, the patient was unable to perform breath test. During the third visit (i.e. 20-3), LEV had been removed, total serum VPA concentration was 108 mg/L and free serum VPA concentration was 12.7 mg/L (both levels above the therapeutic range). Side effects were still mild, EEG was back to normal, but the patient was still not responding to the pharmacotherapy. AED=antiepileptic drugs, EEG=electroencephalography, VPA=valproic acid, LTG=lamotrigine, and LEV=levetiracetam.
59 subjects (32 males and 27 females) between the ages of 4 and 20 (see FIG. 12A for details), undergoing treatment with antiepileptic drugs (AEDs) with the necessity of therapeutic drug monitoring (TDM) were enrolled in the study Immediately after blood drawn for TDM, subjects performed prolonged exhalations directly into SESI-HRMS system, comprising SUPER-SESI ionization device (Fossil Ion Technology, Spain) coupled to a Q Exactive Plus HRMS (Thermo Fisher Scientific, Germany). During the course of study, wherever blood-based TDM were performed, subjects also provided exhalations, leading to multiple measurements from some subjects. In total 75 successful measurements (from 48 subjects) were performed. […] In order to determine the feasibility of TDM of an example drug valproate by using mass spectroscopy of samples of breath exhaled by subjects, the subjects were divided into two groups i.e. valproate users and non-valproate users. […] Moreover, a different relationship between total valproate serum concentration and valproate dose for subjects with mono and multi-therapy compared to that known in the literature (Duran, 1993) was observed (FIG. 12D).

[4] = patient 20, third visit (20-3), LEV removed

For CCCC(CCC)C(=O)O [VPA, Valproic acid], the “fraction directly excreted in urine without chemical modification” value [1] is given as “Less than three percent”, the “fraction modified with coenzyme A and shuttled to mitochondria (β-oxidation, 3-oxovalproate)” value [1] is given as 12% and the “fraction oxidised at position 4 (4-hydroxyvalproate)” value [1] is given as 2.7%. The “fraction oxidised at position 5 (5-hydroxyvalproate)” value [1] was 2.3%, the “fraction undergoing direct glucuronidation” value [1] was 80% and the “span of observed 2-propyl-4-pentanolactone to 3-heptanone ratios” value [2] was “more than 100 fold”. For the same compound, the “total valproate for a given dose, multi-therapy vs mono-therapy” value ([3]; FIG. 12D) was “lower than those of mono-therapy”, the “relationship between participants' age and serum free valproate fraction” value ([3]; ages 4 to 20, FIG. 12C) was “inversely proportional relationship” and the “total serum VPA concentration” value ([3]; patient 20, first visit (20-1), combination of LTG, LEV and VPA) was 104 mg/L. The “free serum VPA concentration” value [3, 4] was 12.7 mg/L, the “total serum VPA concentration” value [3, 4] was 108 mg/L and the “relationship between serum concentrations of free and total valproate” value ([3]; study participants, FIG. 12B) was “non-linear relationship”.
